Reference: patent EP0535528A1, “Antibacterial 5-Nitro-1-methyl-imidazolyl-3-terbutyl-2-hydroxy-aryl-carbinols” (EURORESEARCH S.r.L., priority 1991, dated 1993)
Converted amounts (≈) assume the structure as drawn. Like-named read-outs stand apart in the source and are kept apart here.

Experiments:
Helicobapter pylori [1] = test: Inhibition halos of the bacterial growth (impregnated disks on agar); type: cell-based
Protocol: Comparison substance: Metronidazole Solubilization of the substances : All the substances to be studied are dissolved at room temperature in DMSO.
Some commercially available antibiogram disks are so impregnated with the above mentioned compounds that each disk has concentration equal to 10, 1, 0.1, 0.01 µg.
10 strains of Helicobapter pylori are used of recent clinical isolation.
Columbia Blood Agar Base is used, containing 5% of defibrinated horse blood, 2 % of calf serum, 2 vials of Vitox per liter of medium and Vancomicine (10 µg/ml) Trimetoprim lactate(5 µg/ml) and Polimixin B (2.5 U/ml).
0.1 ml of a suspension of the different used strains are uniformly distributed onto Petri plates, containing 20 ml of Columbia Blood Agar base, obtained by taking a sample, by means of a platinum loop, of different colonies from a 48 hours culture, grown in anaerobiosis jars with "Gas Pack", without a catalyst and diluted into a physiological solution.
4 disks per plate, previously impregnated with the substances under examination, are then placed onto the agar layer of each plate.
After 48 hours of anaerobiosis incubation, as above described, the inhibition halos of the bacterial growth, produced by the different activity of the substances inside the agar, are evaluated.

Salmonella typhimurium = test: Ames test, mutagenic activity; type: cell-based
[2] = solubility of the isolated product; type: physicochemical
[3] = Direct mutation test (16 h treatment in the growth step); type: cell-based
Protocol: The tests are carried out on the compound EU11100 with or without metabolic activity for a treatment period of 16 h in the growth step. The used concentrations are 0.25-0.50 mg/ml without metabolic activation and 0.075-0.150 mg/ml with metabolic activation.

Helicobapter pylori [4] = test: Minimal inhibiting concentration (agar dilution); type: cell-based
Protocol: Substances under examination: EU11100, EU11102, EU11103, EU11104. Comparison substance: Metronidazole Solubilization of the substances: All the substances to be studied are dissolved at room temperature in DMSO. […] 10 strains of Helicobapter pylori are used of recent clinical isolation […] The sowing of the bacteria, prepared as described in the preceding test is carried out by means a "multi-point inoculator". After 48 hours incubation under the condition described in the preceding test, the plates are examined and the Minimal Inhibiting Concentration is evaluated, namely that dose corresponding to growth absence.

[5] = Oral and intraperitoneal acute toxicity in mice (LD50, Probits method); type: in vivo; details: mouse, in vivo, Swiss female mice, 14 days observation
Protocol: 20 Swiss female albino mice are used for this test of the average weight of 20 g (±2), coming from Nossan breeding .
Cages: in Makrolon® with saw dust litter, Number of animals per cage: 5 Acclimation period: 1 week Temperature: 22°C (± 2°C) Humidity : 60%, Diet: pellets for mice produced by Nossan firm, Water ad libitum Fast before the treatment: 16 hours
Oral by gastric route and intraperitoneal.
The substances to be studied: EU11100, EU11102, EU11103, EU11104 are treated with 0.5% carboxymethylcellulose in spring water, for the oral administration, whereas the same substances are intraperitoneally administered in the form of a physiological solution .
For each of the above mentioned substances, a mother suspension is prepared having a concentration in the active ingredient of 250 mg/ml for the oral administration, and analogously a mother suspension is prepared for the intraperitoneal administration having a concentration of the desired active principle of 100 mg/ml.
The following doses are used • a) oral route: 5000 mg/kg • b) intraperitoneal route : 2000 mg/kg
If mortality is observed at the above mentioned doses, other doses are administered in order to obtain a dose-response curve.
5 animals are used for every utilized concentration.
After the administration of the above substances the animals are kept under observation for 14 days , during which the mortality and the behaviour is observed.
LD₅₀ is determined on the base of the cumulative mortality observed in the successive 14 days after the administration by using the Probits method.

[6] = section A (without), 0.25 mg/ml
[7] = section A (without), 0.50 mg/ml

COc1cc(C(O)c2ncc([N+](=O)[O-])n2C)c(O)c(C(C)(C)C)c1 (centres unmarked) [EU11100, 5-nitro-1-methyl-imidazolyl-3-terbutyl-2-hydroxy-5-methoxy-phenyl-carbinol]
activity against the Helicobapter pylori strains used (Helicobapter pylori [1]; 10 strains, 0.1 µg/disk): still able to produce halos against all the strains used | Inhibition halo (mm), Average (Helicobapter pylori [1]; average of 10 strains, 10 µg/disk): 43.7 mm | Inhibition halo (mm) at the concentration (µg/disk) (Helicobapter pylori [1]; strain 1, 0.01 µg/disk): 0 mm | Inhibition halo (mm) at the concentration (µg/disk) (Helicobapter pylori [1]; strain 1, 0.1 µg/disk): 26 mm | Inhibition halo (mm) at the concentration (µg/disk) (Helicobapter pylori [1]; strain 1, 1 µg/disk): 35 mm | Inhibition halo (mm) at the concentration (µg/disk) (Helicobapter pylori [1]; strain 1, 10 µg/disk): 50 mm | Inhibition halo (mm) at the concentration (µg/disk) (Helicobapter pylori [1]; strain 2, 0.01 µg/disk): 0 mm | Inhibition halo (mm) at the concentration (µg/disk) (Helicobapter pylori [1]; strain 2, 1 µg/disk): 30 mm | Inhibition halo (mm) at the concentration (µg/disk) (Helicobapter pylori [1]; strain 2, 10 µg/disk): 44 mm | Inhibition halo (mm) at the concentration (µg/disk) (Helicobapter pylori [1]; strain 3, 0.01 µg/disk): 0 mm | Inhibition halo (mm) at the concentration (µg/disk) (Helicobapter pylori [1]; strain 3, 0.1 µg/disk): 14 mm | Inhibition halo (mm) at the concentration (µg/disk) (Helicobapter pylori [1]; strain 3, 1 µg/disk): 30 mm | Inhibition halo (mm) at the concentration (µg/disk) (Helicobapter pylori [1]; strain 3, 10 µg/disk): 38 mm | Inhibition halo (mm) at the concentration (µg/disk) (Helicobapter pylori [1]; strain 4, 0.01 µg/disk): 0 mm | Inhibition halo (mm) at the concentration (µg/disk) (Helicobapter pylori [1]; strain 4, 0.1 µg/disk): 26 mm | Inhibition halo (mm) at the concentration (µg/disk) (Helicobapter pylori [1]; strain 4, 1 µg/disk): 35 mm | Inhibition halo (mm) at the concentration (µg/disk) (Helicobapter pylori [1]; strain 4, 10 µg/disk): 50 mm | Inhibition halo (mm) at the concentration (µg/disk) (Helicobapter pylori [1]; strain 5, 0.01 µg/disk): 0 mm | Inhibition halo (mm) at the concentration (µg/disk) (Helicobapter pylori [1]; strain 5, 0.1 µg/disk): 12 mm | Inhibition halo (mm) at the concentration (µg/disk) (Helicobapter pylori [1]; strain 5, 1 µg/disk): 22 mm | Inhibition halo (mm) at the concentration (µg/disk) (Helicobapter pylori [1]; strain 5, 10 µg/disk): 38 mm | Inhibition halo (mm) at the concentration (µg/disk) (Helicobapter pylori [1]; strain 6, 0.01 µg/disk): 0 mm | Inhibition halo (mm) at the concentration (µg/disk) (Helicobapter pylori [1]; strain 6, 0.1 µg/disk): 22 mm | Inhibition halo (mm) at the concentration (µg/disk) (Helicobapter pylori [1]; strain 6, 1 µg/disk): 34 mm | Inhibition halo (mm) at the concentration (µg/disk) (Helicobapter pylori [1]; strain 6, 10 µg/disk): 48 mm | Inhibition halo (mm) at the concentration (µg/disk) (Helicobapter pylori [1]; strain 7, 0.01 µg/disk): 0 mm | Inhibition halo (mm) at the concentration (µg/disk) (Helicobapter pylori [1]; strain 7, 0.1 µg/disk): 12 mm | Inhibition halo (mm) at the concentration (µg/disk) (Helicobapter pylori [1]; strain 7, 1 µg/disk): 28 mm | Inhibition halo (mm) at the concentration (µg/disk) (Helicobapter pylori [1]; strain 7, 10 µg/disk): 35 mm | Inhibition halo (mm) at the concentration (µg/disk) (Helicobapter pylori [1]; strain 8, 0.01 µg/disk): 0 mm | Inhibition halo (mm) at the concentration (µg/disk) (Helicobapter pylori [1]; strain 8, 0.1 µg/disk): 21 mm | Inhibition halo (mm) at the concentration (µg/disk) (Helicobapter pylori [1]; strain 8, 10 µg/disk): 48 mm | Inhibition halo (mm) at the concentration (µg/disk) (Helicobapter pylori [1]; strain 9, 0.01 µg/disk): 0 mm | Inhibition halo (mm) at the concentration (µg/disk) (Helicobapter pylori [1]; strain 9, 1 µg/disk): 28 mm | Inhibition halo (mm) at the concentration (µg/disk) (Helicobapter pylori [1]; strain 9, 10 µg/disk): 43 mm | Inhibition halo (mm) at the concentration (µg/disk) (Helicobapter pylori [1]; strain 10, 0.01 µg/disk): 0 mm | Inhibition halo (mm) at the concentration (µg/disk) (Helicobapter pylori [1]; strain 10, 0.1 µg/disk): 14 mm | Inhibition halo (mm) at the concentration (µg/disk) (Helicobapter pylori [1]; strain 10, 10 µg/disk): 43 mm | toxicity to the Salmonella strains (Salmonella typhimurium; 1000 µg/capsule, in the absence of metabolic activation): toxic | mutagenic activity (Salmonella typhimurium; general statement): practically no mutagenic activity | doubling of the base value (Salmonella typhimurium; strain TA-100, without metabolic activation, 500 µg/capsule): 1.95 times | signal in other strains (Salmonella typhimurium; strains other than TA-100, without metabolic activation): do not give rise to any particular signal | spontaneous reversion of Salmonella (Salmonella typhimurium; with metabolic activation, 250, 500 and 1000 µg/capsule): does not increase the spontaneous reversion of Salmonella | solubility [2]: Soluble in CH₃OH, benzene, acetone, ethyl ether; insoluble in water and ligroin. | Frequency of: Mutation [3, 6]: 1.60 | Survival (%) [3, 6]: 71.1% | Frequency of: Mutation [3, 7]: 0.00 | Survival (%) [3, 7]: 36.4% | Frequency of: Mutation ([3]; section B (with), 0.075 mg/ml): 2.11 | Survival (%) ([3]; section B (with), 0.075 mg/ml): 89.9% | Frequency of: Mutation ([3]; section B (with), 0.150 mg/ml): 3.22 | Survival (%) ([3]; section B (with), 0.150 mg/ml): 29.5% | MIC50 (Helicobapter pylori [4]; 10 strains): 0.03 µg/mL (≈ 0.0895 µM) | MIC90 (Helicobapter pylori [4]; 10 strains): 0.06 µg/mL (≈ 0.179 µM) | MIC range (Helicobapter pylori [4]; 10 strains): 0.015 to 0.016 µg/mL | MIC values (Helicobapter pylori [4]; in words, compared with Metronidazole): very low MIC values | MIC (Helicobapter pylori [4]; strain 1): 0.12 µg/mL (≈ 0.358 µM) | MIC (Helicobapter pylori [4]; strain 2): 0.03 µg/mL (≈ 0.0895 µM) | MIC (Helicobapter pylori [4]; strain 3): 0.03 µg/mL (≈ 0.0895 µM) | MIC (Helicobapter pylori [4]; strain 4): 0.03 µg/mL (≈ 0.0895 µM) | MIC (Helicobapter pylori [4]; strain 5): 0.015 µg/mL (≈ 0.0447 µM) | MIC (Helicobapter pylori [4]; strain 6): 0.03 µg/mL (≈ 0.0895 µM) | MIC (Helicobapter pylori [4]; strain 7): 0.06 µg/mL (≈ 0.179 µM) | MIC (Helicobapter pylori [4]; strain 8): 0.03 µg/mL (≈ 0.0895 µM) | MIC (Helicobapter pylori [4]; strain 9): 0.03 µg/mL (≈ 0.0895 µM) | MIC (Helicobapter pylori [4]; strain 10): 0.03 µg/mL (≈ 0.0895 µM) | LD50 at 336 h ([5]; po, per os, read-out: LD50 os): > 5000 mg/kg | LD50 at 336 h ([5]; ip, read-out: LD50 i.p.): 890 mg/kg
